# Data as given in patent US12391679B2, “Benzamide-substituted bicyclic imidazo- and pyrazolo-fused -pyridine, -pyrimide, and -pyridazine compounds for treatment of inflammatory diseases” (ONCO3R Therapeutics BV, priority 2019, dated 2025).
# Legend:
# [1] = tested on: LPS triggered IL-10 secretion in monocytes; experiment: Monocytes assay: LPS-triggered IL-10 (ELISA); type: cell-based, human; details: Homo sapiens, Monocyte, LPS-triggered IL-10 induction, median maximal fold change vs LPS only, read-out: IL-10 FCmax median
# Outline: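 CD14+ monocytes bead-isolated from human PBMCs, pretreated with compound 1 h at 37 °C (0.2% DMSO), then stimulated with LPS 200 ng/mL for 4 h. Supernatant IL-10 measured by chemiluminescent sandwich ELISA; fold change versus LPS only per concentration, reported as maximal fold change (FCmax).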
# SIK3 = molecular target: T1, SIK3 (Homo sapiens, UniProt Q9Y2K2); experiment: ADP-Glo kinase assay, SIK3; type: biochemical
# T1 construct: purchased SignalChem S12-11G-100
# T1 sequence (Q9Y2K2 59-365 limits assumed): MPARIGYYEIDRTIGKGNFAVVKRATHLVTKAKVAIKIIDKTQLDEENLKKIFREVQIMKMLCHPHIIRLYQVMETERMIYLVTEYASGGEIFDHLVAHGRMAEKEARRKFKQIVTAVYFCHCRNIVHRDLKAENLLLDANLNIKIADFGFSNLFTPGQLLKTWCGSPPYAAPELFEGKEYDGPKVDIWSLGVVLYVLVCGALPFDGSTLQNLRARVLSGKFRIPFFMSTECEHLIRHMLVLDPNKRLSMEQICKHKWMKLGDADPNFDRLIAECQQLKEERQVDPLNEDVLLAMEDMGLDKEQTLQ
# Outline: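 ADP-Glo format, luminescent. Room-temperature kinase reaction lasting 120 min, followed by ATP removal (40 min) and ADP detection (30 min); 10 μM staurosporine serves as full-inhibition control, 1% DMSO as uninhibited control.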
# [2] = tested on: LPS-induced TNFα in monocytes; experiment: Monocytes assay: LPS-triggered TNFα (ELISA); type: cell-based, human; details: Homo sapiens, Monocyte, LPS-triggered TNFα inhibition
# Outline: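 TNFα secretion was triggered with 200 ng/mL LPS for 4 h in human blood CD14+ monocytes after 1 h compound pretreatment at 37 °C, with 0.2% final DMSO. Supernatants were analysed by streptavidin-HRP/luminol ELISA, and percentage inhibition at each concentration was derived relative to control wells.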
Compound,IC50 (SIK3),EC50 [2],maximal fold induction [1]
"COc1cc(-c2cnc3cc(C(F)(F)CO)ccn23)cc(OC(F)F)c1C(=O)NC1CC1 [Cpd 136, N-cyclopropyl-4-[7-(1,1-difluoro-2-hydroxy-ethyl)imidazo[1,2-a]pyridin-3-yl]-2-(difluoromethoxy)-6-methoxy-benzamide]",0.01 to 10 nM,100 to 1000 nM,1.5 to 4.5
"CCC(C)(O)c1ccn2c(-c3cc(OC)c(C(=O)NC4CC4)c(OC(F)F)c3)cnc2c1 (stereo not drawn) [Cpd 137, N-cyclopropyl-2-(difluoromethoxy)-4-[7-(1-hydroxy-1-methyl-propyl)imidazo[1,2-a]pyridin-3-yl]-6-methoxy-benzamide]",10 to 100 nM,100 to 1000 nM,< 1.5
"COc1cc(-c2cnc3cc(C(C)(C)CO)ccn23)cc(OC(F)F)c1C(=O)NC1CC1 [Cpd 150, N-cyclopropyl-2-(difluoromethoxy)-4-[7-(2-hydroxy-1,1-dimethyl-ethyl)imidazo[1,2-a]pyridin-3-yl]-6-methoxy-benzamide]",0.01 to 10 nM,100 to 1000 nM,< 1.5
"COc1cc(-c2cnc3cc(C4CCC4)c(F)cn23)cc(OC(F)F)c1C(=O)NC1CC1 [Cpd 168, 4-(7-cyclobutyl-6-fluoro-imidazo[1,2-a]pyridin-3-yl)-N-cyclopropyl-2-(difluoromethoxy)-6-methoxy-benzamide]",0.01 to 10 nM,100 to 1000 nM,1.5 to 4.5
"COc1cc(-c2cnc3cc(C4(O)CCOCC4)ccn23)cc(OC(F)F)c1C(=O)NC1CC1 [Cpd 170, N-cyclopropyl-2-(difluoromethoxy)-4-[7-(4-hydroxytetrahydropyran-4-yl)imidazo[1,2-a]pyridin-3-yl]-6-methoxy-benzamide]",10 to 100 nM,1000 to 5000 nM,1.5 to 4.5
"COc1cc(-c2cnc3cc(C4CCCN4C)ccn23)cc(OC(F)F)c1C(=O)NC1CC1 (stereo not drawn) [Cpd 171, N-cyclopropyl-2-(difluoromethoxy)-6-methoxy-4-[7-(1-methylpyrrolidin-2-yl)imidazo[1,2-a]pyridin-3-yl]benzamide]",10 to 100 nM,1000 to 5000 nM,1.5 to 4.5
"COc1cc(-c2cnc3cc(C(C)(C)C(C)O)ccn23)cc(OC(F)F)c1C(=O)NC1CC1 (stereo not drawn) [Cpd 172, N-cyclopropyl-2-(difluoromethoxy)-4-[7-(2-hydroxy-1,1-dimethyl-propyl)imidazo[1,2-a]pyridin-3-yl]-6-methoxy-benzamide]",10 to 100 nM,100 to 1000 nM,< 1.5
"COc1cc(-c2cnc3cc(C4(O)CCC4)ccn23)cc(OC(F)F)c1C(=O)NC1CC1 [Cpd 173, N-cyclopropyl-2-(difluoromethoxy)-4-[7-(1-hydroxycyclobutyl)imidazo[1,2-a]pyridin-3-yl]-6-methoxy-benzamide]",10 to 100 nM,100 to 1000 nM,1.5 to 4.5
"COc1cc(-c2cnc3cc(C4COC4)ccn23)cc(OC(F)F)c1C(=O)NC1CC1 [Cpd 174, N-cyclopropyl-2-(difluoromethoxy)-6-methoxy-4-[7-(oxetan-3-yl)imidazo[1,2-a]pyridin-3-yl]benzamide]",0.01 to 10 nM,100 to 1000 nM,1.5 to 4.5
"COc1cc(-c2cnc3cc(C(O)CC#N)ccn23)cc(OC(F)F)c1C(=O)NC1CC1 (stereo not drawn) [Cpd 175, 4-[7-(2-cyano-1-hydroxy-ethyl)imidazo[1,2-a]pyridin-3-yl]-N-cyclopropyl-2-(difluoromethoxy)-6-methoxy-benzamide]",10 to 100 nM,1000 to 5000 nM,1.5 to 4.5

# Continued, in another order:
IC50 (SIK3),EC50 [2],Compound,maximal fold induction [1]
10 to 100 nM,100 to 1000 nM,"COc1cc(-c2cnc3cc(C(C)(C#N)CO)ccn23)cc(OC(F)F)c1C(=O)NC1CC1 (stereo not drawn) [Cpd 176, 4-[7-(1-cyano-2-hydroxy-1-methyl-ethyl)imidazo[1,2-a]pyridin-3-yl]-N-cyclopropyl-2-(difluoromethoxy)-6-methoxy-benzamide]",1.5 to 4.5
10 to 100 nM,100 to 1000 nM,"COCC(C)(C#N)c1ccn2c(-c3cc(OC)c(C(=O)NC4CC4)c(OC(F)F)c3)cnc2c1 (stereo not drawn) [Cpd 195, 4-[7-(1-cyano-2-methoxy-1-methyl-ethyl)imidazo[1,2-a]pyridin-3-yl]-N-cyclopropyl-2-(difluoromethoxy)-6-methoxy-benzamide]",< 1.5
0.01 to 10 nM,100 to 1000 nM,"COc1cc(-c2cnc3cc(C4(O)CCC4)ccn23)cc(OC(F)F)c1C(=O)N[C@@H]1C[C@@H]1F [Cpd 205, 2-(difluoromethoxy)-N-[(1R,2S)-2-fluorocyclopropyl]-4-[7-(1-hydroxycyclobutyl)imidazo[1,2-a]pyridin-3-yl]-6-methoxy-benzamide]",1.5 to 4.5
0.01 to 10 nM,100 to 1000 nM,"COc1cc(-c2cnc3cc(C4COC4)ccn23)cc(OC(F)F)c1C(=O)N[C@@H]1C[C@@H]1F [Cpd 206, 2-(difluoromethoxy)-N-[(1R,2S)-2-fluorocyclopropyl]-6-methoxy-4-[7-(oxetan-3-yl)imidazo[1,2-a]pyridin-3-yl]benzamide]",1.5 to 4.5
0.01 to 10 nM,100 to 1000 nM,"COc1cc(-c2cnc3cc(C4(F)COC4)ccn23)cc(OC(F)F)c1C(=O)NC1CC1 [Cpd 207, N-cyclopropyl-2-(difluoromethoxy)-4-[7-(3-fluorooxetan-3-yl)imidazo[1,2-a]pyridin-3-yl]-6-methoxy-benzamide]",< 1.5
10 to 100 nM,0.1 to 100 nM,"COc1cc(-c2cnn3cc(C(C)(C)C#N)ccc23)cc(OC(F)F)c1C(=O)NC1CC1 [Cpd 208, 4-[6-(1-cyano-1-methyl-ethyl)pyrazolo[1,5-a]pyridin-3-yl]-N-cyclopropyl-2-(difluoromethoxy)-6-methoxy-benzamide]",< 1.5
0.01 to 10 nM,100 to 1000 nM,"COc1cc(-c2cnc3cc(C(C)(C)O)ccn23)cc(OC(F)F)c1C(=O)N[C@@H]1C[C@@H]1F [Cpd 211, 2-(difluoromethoxy)-N-[(1R,2S)-2-fluorocyclopropyl]-4-[7-(1-hydroxy-1-methyl-ethyl)imidazo[1,2-a]pyridin-3-yl]-6-methoxy-benzamide]",1.5 to 4.5
10 to 100 nM,100 to 1000 nM,"COc1cc(-c2cnn3cc(C4COC4)ccc23)cc(OC(F)F)c1C(=O)NC1CC1 [Cpd 216, N-cyclopropyl-2-(difluoromethoxy)-6-methoxy-4-[6-(oxetan-3-yl)pyrazolo[1,5-a]pyridin-3-yl]benzamide]",< 1.5
0.01 to 10 nM,0.1 to 100 nM,"COc1cc(-c2cnn3cc(C4COC4)ccc23)cc(OC(F)F)c1C(=O)N[C@@H]1C[C@@H]1F [Cpd 218, 2-(difluoromethoxy)-N-[(1R,2S)-2-fluorocyclopropyl]-6-methoxy-4-[6-(oxetan-3-yl)pyrazolo[1,5-a]pyridin-3-yl]benzamide]",1.5 to 4.5
0.01 to 10 nM,100 to 1000 nM,"COc1cc(-c2cnc3cc(C4(F)COC4)ccn23)cc(OC(F)F)c1C(=O)N[C@@H]1C[C@@H]1F [Cpd 224, 2-(difluoromethoxy)-N-[(1R,2S)-2-fluorocyclopropyl]-4-[7-(3-fluorooxetan-3-yl)imidazo[1,2-a]pyridin-3-yl]-6-methoxy-benzamide]",1.5 to 4.5
0.01 to 10 nM,100 to 1000 nM,"COc1cc(-c2cnn3cc(C(C)(C)O)ccc23)cc(OC(F)F)c1C(=O)N[C@@H]1C[C@@H]1F [Cpd 227, 2-(difluoromethoxy)-N-[(1R,2S)-2-fluorocyclopropyl]-4-[6-(1-hydroxy-1-methyl-ethyl)pyrazolo[1,5-a]pyridin-3-yl]-6-methoxy-benzamide]",< 1.5
0.01 to 10 nM,100 to 1000 nM,"COc1cc(-c2cnc3cc(C(C)(C)C#N)cnn23)cc(OC(F)F)c1C(=O)N[C@@H]1C[C@@H]1F [Cpd 228, 4-[7-(1-cyano-1-methyl-ethyl)imidazo[1,2-b]pyridazin-3-yl]-2-(difluoromethoxy)-N-[(1R,2S)-2-fluorocyclopropyl]-6-methoxy-benzamide]",< 1.5
0.01 to 10 nM,100 to 1000 nM,"COc1cc(-c2cnn3cc(C(C)(C)C#N)cnc23)cc(OC(F)F)c1C(=O)N[C@@H]1C[C@@H]1F [Cpd 231, 4-[6-(1-cyano-1-methyl-ethyl)pyrazolo[1,5-a]pyrimidin-3-yl]-2-(difluoromethoxy)-N-[(1R,2S)-2-fluorocyclopropyl]-6-methoxy-benzamide]",< 1.5
0.01 to 10 nM,100 to 1000 nM,"COc1cc(-c2cnn3cc(C4COCCO4)ccc23)cc(OC(F)F)c1C(=O)NC1CC1 (stereo not drawn) [Cpd 232, N-cyclopropyl-2-(difluoromethoxy)-4-[6-(1,4-dioxan-2-yl)pyrazolo[1,5-a]pyridin-3-yl]-6-methoxy-benzamide]",< 1.5
10 to 100 nM,100 to 1000 nM,"COc1cc(-c2cnn3cc(C(C)(C)CO)ccc23)cc(OC(F)F)c1C(=O)NC1CC1 [Cpd 236, N-cyclopropyl-2-(difluoromethoxy)-4-[6-(2-hydroxy-1,1-dimethyl-ethyl)pyrazolo[1,5-a]pyridin-3-yl]-6-methoxy-benzamide]",< 1.5
